From patent US20250195463A1, “ORGANOMETALLIC COMPLEX, CONTROLLED-RELEASE MULTI-FUNCTIONAL DRUG, PHARMACEUTICAL COMPOSITION, PROCESSES FOR THE PREPARATION THEREOF AND THEIR USE” (FACULDADE DE CIÊNCIAS DA UNIVERSIDADE DE LISBOA, priority 2022, published 2025)

Key:
[1] = Stability in aqueous medium (dimethyl sulfoxide/Dulbecco's Modified Eagle Medium) by UV-Vis spectroscopy; type: physicochemical; conditions: 10% dimethyl sulfoxide/90% Dulbecco's Modified Eagle Medium; for Relative variation of the maximum absorbance of the π→π* transitions: band 292-296 nm (λmax in column head); for Relative variation of the maximum absorbance of the charge transfer bands: band 358-400 nm (λmax in column head)
Description: (§1) The stability of the complexes 4-11 in organic and aqueous media was evaluated over 24 h by UV-Vis spectroscopy at room temperature, in dark, on a Jasco V-660 spectrometer using quartz cuvettes (1 cm optical path length). The electronic spectra (270-900 nm) were acquired at regular periods of time (0 h, 0.25 h, 0.5 h, 0.75 h, 1 h, 2 h, 3 h, 4 h, 5 h, 6 h, 24 h) for solutions of 100% dimethyl sulfoxide (complexes 4-11) and 5% dimethyl sulfoxide/95% Dulbecco's Modified Eagle Medium (complexes 4, 5 and 8-11) or 10% dimethyl sulfoxide/90% Dulbecco's Modified Eagle Medium (complexes 6 and 7) at concentrations ranging from 7.0×10^-5 M to 3.0×10^-4 M.

[2] = Stability in organic medium (dimethyl sulfoxide) by UV-Vis spectroscopy; type: physicochemical; conditions: band 357-425 nm (λmax in column head)
Description: as §1

Structure (SMILES) | Relative variation of the maximum absorbance of the π→π* transitions ([1]; time 0 h) | Relative variation of the maximum absorbance of the charge transfer bands ([1]; time 0 h) | Relative variation of the maximum absorbance of the π→π* transitions ([1]; time 0.25 h) | Relative variation of the maximum absorbance of the charge transfer bands ([1]; time 0.25 h) | Relative variation of the maximum absorbance of the π→π* transitions ([1]; time 0.5 h) | Relative variation of the maximum absorbance of the charge transfer bands ([1]; time 0.5 h) | Relative variation of the maximum absorbance of the π→π* transitions ([1]; time 0.75 h) | Relative variation of the maximum absorbance of the charge transfer bands ([1]; time 0.75 h) | Relative variation of the maximum absorbance of the π→π* transitions ([1]; time 1 h) | Relative variation of the maximum absorbance of the charge transfer bands ([1]; time 1 h) | Relative variation of the maximum absorbance of the π→π* transitions ([1]; time 2 h) | Relative variation of the maximum absorbance of the charge transfer bands ([1]; time 2 h) | Relative variation of the maximum absorbance of the π→π* transitions ([1]; time 3 h) | Relative variation of the maximum absorbance of the charge transfer bands ([1]; time 3 h) | Relative variation of the maximum absorbance of the π→π* transitions ([1]; time 4 h) | Relative variation of the maximum absorbance of the charge transfer bands ([1]; time 4 h) | Relative variation of the maximum absorbance of the π→π* transitions ([1]; time 5 h) | Relative variation of the maximum absorbance of the charge transfer bands ([1]; time 5 h) | Relative variation of the maximum absorbance of the π→π* transitions ([1]; time 6 h) | Relative variation of the maximum absorbance of the charge transfer bands ([1]; time 6 h) | other results
CC(=O)C1=C[CH]([Ru-]2([PH](c3ccccc3)(c3ccccc3)c3ccccc3)[n+]3cccc4c5nccnc5c5ccc[n+]2c5c43)C=C1.O=S(=O)([O-])C(F)(F)F (stereo not drawn) [compound 7] | 0.0% | 0.0% | 0.0% | 0.3% | 0.1% | 0.4% | 0.3% | 0.6% | 0.1% | 0.5% | 0.1% | 0.5% | 0.0% | 0.4% | −0.3% | 0.5% | −0.2% | 0.5% | 0.0% | 0.4% | Relative variation of the maximum absorbance of the π→π* transitions ([1]; time 24 h): 0.3%; Relative variation of the maximum absorbance of the charge transfer bands ([1]; time 24 h): 1.3%; Relative variation of the maximum absorbance of the charge transfer bands ([2]; time 0 h): 0.0%; Relative variation of the maximum absorbance of the charge transfer bands ([2]; time 0.25 h): 0.0%; Relative variation of the maximum absorbance of the charge transfer bands ([2]; time 0.5 h): −0.1%; Relative variation of the maximum absorbance of the charge transfer bands ([2]; time 0.75 h): −0.1%; Relative variation of the maximum absorbance of the charge transfer bands ([2]; time 1 h): −0.1%; Relative variation of the maximum absorbance of the charge transfer bands ([2]; time 2 h): −0.3%; Relative variation of the maximum absorbance of the charge transfer bands ([2]; time 3 h): −0.2%; Relative variation of the maximum absorbance of the charge transfer bands ([2]; time 4 h): −0.5%; Relative variation of the maximum absorbance of the charge transfer bands ([2]; time 5 h): −0.3%; Relative variation of the maximum absorbance of the charge transfer bands ([2]; time 6 h): −0.4%; Relative variation of the maximum absorbance of the charge transfer bands ([2]; time 24 h): −0.3%
CC(=O)C1=C[CH]([Ru-]2([PH](c3ccccc3)(c3ccccc3)c3ccccc3)[n+]3cccc4ccc5ccc[n+]2c5c43)C=C1.O=S(=O)([O-])C(F)(F)F (stereo not drawn) [compound 6] | 0.0% | 0.0% | −0.4% | 0.0% | 0.4% | 0.4% | 0.3% | 0.3% | −0.2% | 0.0% | 1.0% | 0.6% | 2.0% | 0.8% | 2.1% | 0.8% | 1.3% | 0.4% | 1.5% | 0.2% | Relative variation of the maximum absorbance of the π→π* transitions ([1]; time 24 h): 5.3%; Relative variation of the maximum absorbance of the charge transfer bands ([1]; time 24 h): 1.8%; Relative variation of the maximum absorbance of the charge transfer bands ([2]; time 0 h): 0.0%; Relative variation of the maximum absorbance of the charge transfer bands ([2]; time 0.25 h): −0.1%; Relative variation of the maximum absorbance of the charge transfer bands ([2]; time 0.5 h): 0.2%; Relative variation of the maximum absorbance of the charge transfer bands ([2]; time 0.75 h): 0.0%; Relative variation of the maximum absorbance of the charge transfer bands ([2]; time 1 h): 0.9%; Relative variation of the maximum absorbance of the charge transfer bands ([2]; time 2 h): 2.6%; Relative variation of the maximum absorbance of the charge transfer bands ([2]; time 3 h): 1.3%; Relative variation of the maximum absorbance of the charge transfer bands ([2]; time 4 h): 1.5%; Relative variation of the maximum absorbance of the charge transfer bands ([2]; time 5 h): −0.2%; Relative variation of the maximum absorbance of the charge transfer bands ([2]; time 6 h): −0.3%; Relative variation of the maximum absorbance of the charge transfer bands ([2]; time 24 h): 0.3%
